These results are taken from US7253176B1, “Immunosuppressive effects of 8-substituted xanthine derivatives” (K.U. Leuven Research & Development, priority 2000, dated 2007).

The test system of data set [1] is Peripheral blood mononuclear cells (PBMC). Put plainly: Mixed lymphocyte reaction (MLR), [3H]-thymidine incorporation. It is filed as cell-based, human. The following applies: lowest concentration giving 50% suppression of the MLR. An excerpt:
(§1) Various models may be used for testing an immunosuppressive effect. In vivo, for example, different transplantation models are available. They are strongly influenced by different immunogenicities, depending on the donor and recipient species used and depending on the nature of the transplanted organ. The survival time of transplanted organs can thus be used to measure the suppression of the immune response. In vitro, there exist also various models. The most used are lymphocyte activation tests. Usually activation is measured via lymphocyte proliferation. Inhibition of proliferation thus always means immunosuppression under the experimental conditions applied. There exist different stimuli for lymphocyte activation: • coculture of lymphocytes of […] (MLR=mixed lymphocyte reaction): lymphocytes expressing different minor and major antigens of the HLA-DR type (=allogens) activate each other non-specifically. • CD3 assay: here there is an activation of the T-lymphocytes via an exogenously added antibody (OKT3). This antibody reacts against the CD3 molecule located on the lymphocyte membrane. This molecule has a […]. […] This molecule is also located on the lymphocyte membrane, and delivers strong costimulatory signals. […] Reagents
Mixed Lymphocyte Reaction
Peripheral blood mononuclear cells (PBMC) were isolated from heparinized peripheral blood by density gradient centrifugation over Lymphoprep (Nycomed, Maorstua, Norway). Allogeneic PBMC or EBV-transformed human B cells [RPMI1788 (ATCC name CCL156)] which strongly express B7-1 and B7-2 were used as stimulator calls after irradiation with 30 Gy. MLR was performed in triplicate wells. After 5 days incubation at 37° C., 1 μCi [^3H]-thymidine was added to each cup. After a further 16 hours incubation, cells were harvested and counted in a β-counter.
The percent suppression of proliferation by drugs was counted using the formula: […]

The test system of data set [2] is Highly purified T cells. Kind of data set: T cell proliferation induced by anti-CD3 mAb+PMA (BrdU). It is filed as cell-based, human. As to conditions: anti-CD3 mAb+PMA pathway, read-out: IC50 aCD3. An excerpt: T cells were purified by removing non-T cells. Briefly, monocytes were removed by cold agglutination. The resulting lymphoid cells were further purified by a cell enrichment immunocolumn [Cellect Human T (Biotex, Edmonton, Alberta, Canada)] by a process of negative selection.
(§2) Measurements of T Cell Proliferations Induced by Anti-CD3 mAB+PMA or Anti-CD28 mAb+PMA
(§3) Highly purified T cells (10^6/ml) were stimulated by immobilized anti-CD3 or anti-CD28 mAb in the presence of PMA. Anti-CD3 mAb (CLB-CD3; CLB, Amsterdam, The Netherlands) were fixed on the 96-microwell plates by incubating the wells with 50 μl of mAb solution […] 50 μl (1/650 dilution in culture medium) was added directly to the wells. Further, 20 μl PMA (Sigma, St. Louis, Mo., USA) solution (final concentration: 0.5 ng/ml) was added. Subsequently, 20 μl of immunosuppressants were added by serial dilution in triplicate wells. Finally 100 μl of the T cell suspension (10^6/ml) was added. After 48-hour incubation at 37° C. in 5% CO2 20 μl BrdU (100 μM solution) (Cell Proliferation Elisa, Boehringer-Mannheim Belgium) was added to each well. After a further overnight incubation the T cell proliferation was measured using a calorimetric immunoassay for qualification of cell proliferation based on measurements of the incorporation of BrdU during DNA synthesis. The optical density (OD) was measured by a Behring EL311 place reader at 450 nm (reference wavelength: […]). The percent suppression of proliferation by drugs was counted using the formula: […]

Data set [3] has as its system Highly purified T cells. Put plainly: T cell proliferation induced by anti-CD28 mAb+PMA (BrdU). It is filed as cell-based, human. As to conditions: anti-CD28 mAb+PMA pathway, read-out: IC50 aCD28.
Excerpt: as §1
T cells were purified by removing non-T cells. Briefly, monocytes were removed by cold agglutination. The resulting lymphoid cells were further purified by a cell enrichment immunocolumn [Cellect Human T (Biotex, Edmonton, Alberta, Canada)] by a process of negative selection. More than 95% of the B cells were removed with this procedure. After depletion, the resulting T cell preparation was highly purified explaining these cells could not be activated by PHA or rIL-2 alone at concentrations capable of stimulating RBMC prior to deletion.
as §2, §3

Data set [4] deals with Con A induced proliferation of lymphocytes. Kind of data set: Whole Blood Assay (WBA): Con A induced lymphoproliferation in blood of rats given test substances in vivo. Set-up: species or system R/A rats. As to conditions: orally 40 mg/kg/d 2x/d 2d, blood taken after 8 h, Con A 15 μg/ml. The procedure: [formula] […] Whole Blood Assay (WBA): WBA is a lymphoproliferation assay performed in vitro but using lymphocytes present in whole blood, taken from animals that were previously given test substances in vivo.
Rats: inbred, male 6- to 8-weeks old R/A rats weighing ±200 g were used as recipients.
Drug administration: xanthine derivatives were dissolved in DMSO and further diluted with PBS. Products were given orally in different concentrations 2 times a day for 2 days. To perform the experiments, 6–8 hours after the last administration 1 ml of blood is taken by heart puncture after ether anesthesia and anticoagulated with 100 U/ml of preservative free heparine. […]
Heparinized whole blood was diluted (1:25) with complete RPMI medium and stimulated with 15 μg/ml of concanavalin A (Con A) in triplicate wells in 96-well microtiter plates at 37° C. and 5% CO2. After 96-h culture, proliferation was determined by measuring the incorporation (cpm) of [^3H]-thymidine.
The Con A induced proliferation of lymphocytes taken from rats receiving the test substances (exp) was compared with that from rats receiving only the solvent (con). The percent suppression was calculated as follows: […]

As for “1,3-dipropyl-8-[4(diethylamino(propyl(amino-(sulfonyl))))fenyl]xanthine [Compound 11]”, the values for the IC50 (in data set [1]; in the data set with Highly purified T cells [2]; in the data set on Highly purified T cells [3]) were 25 µM, 40 µM and 55 µM, respectively. In addition, the “% suppresion” value in data set [4] is listed as 33%.
For the molecule `CC#Cn1c(=O)c2c(ncn2C)n(C#CC)c1=O` [Compound 4, 1,3-dipropynyl-7-methylxanthine], the melting point is 172 °C. Besides, the IC50 in data set [1] (Homo sapiens, PBMC) was above 200 µM. Moreover, the IC50 in the data set with Highly purified T cells [2] (Homo sapiens, T-cell) is 90 µM. Moreover, in the data set on Highly purified T cells [3] (Homo sapiens, T-cell), the IC50 was above 200 µM.
`CC#Cn1c(=O)c2c(ncn2C#CC)n(C)c1=O` [Compound 2, 1,7-dipropynyl-3-methylxanthine]: the melting point came to 177 °C.
With `Cc1oncc1C(=O)Nc1ccc(C(F)(F)F)cc1` [Leflunomide, reference compound], the IC50 worked out at 25 µM in data set [1] (Homo sapiens, PBMC); 15 µM in the data set with Highly purified T cells [2] (Homo sapiens, T-cell); 20 µM in the data set on Highly purified T cells [3] (Homo sapiens, T-cell).
Molecule `Cn1c(=O)c2c(ncn2C)n(CC(C)(C)C)c1=O` [Compound 68, 1,7-dimethyl-3-((tertbutyl)methyl)xanthine] came in with a melting point of 158 °C. The same molecule returned an IC50 in data set [1] (Homo sapiens, PBMC) of 75 µM. Besides, in the data set on Highly purified T cells [2] (Homo sapiens, T-cell), the IC50 amounted to 130 µM. Moreover, the IC50 in the data set on Highly purified T cells [3] (Homo sapiens, T-cell) is 120 µM.
“1,7-diallyl-3-methyl-8-fenylxanthine [Compound 8]”: the values for the IC50 (in data set [1]; with Highly purified T cells [2]; with Highly purified T cells [3]) were 30 µM, 35 µM and 80 µM, respectively.
Consider “1,3-dipropyl-8-[4-dimethylamino(propyl(amino-(sulfonyl))))fenyl]xanthine [Compound 40]”, for which the values for the IC50 (in data set [1]; with Highly purified T cells [2]; in the data set with Highly purified T cells [3]) were 25 µM, 60 µM and 70 µM, respectively.
In the case of `CCCn1c(=O)c2[nH]c(-c3ccc(C(F)(F)F)cc3)nc2n(CCC)c1=O` [Compound 48], the IC50 was 180 µM in data set [1], 160 µM in the data set with Highly purified T cells [2] and 150 µM with Highly purified T cells [3].
Turning to `Cn1c(=O)c2c(nc(C3CCCC3)n2C)n(C)c1=S` [Compound 66], the results for the IC50 (in data set [1]; in the data set on Highly purified T cells [2]; in the data set on Highly purified T cells [3]) were above 200 µM, 170 µM and 170 µM, respectively.
As for `CCCn1c(=O)c2[nH]c(-c3ccc(OCC(=O)O)cc3)nc2n(CCC)c1=S` [Compound 28], the half-inhibitory concentration (IC50) in data set [1] was 120 µM; with Highly purified T cells [2] it was 150 µM; in the data set on Highly purified T cells [3], 75 µM.
`Cn1c(=O)c2[nH]c(C3CCCC3)nc2n(C)c1=O` [Compound 62]: the IC50 was above 200 µM in data set [1], above 200 µM with Highly purified T cells [2] and 190 µM with Highly purified T cells [3].
In the case of `CCCn1c(=O)c2[nH]c(C3CCCC3)nc2n(CCC)c1=O` [Compound 63], the IC50 in data set [1] is above 200 µM; in the data set on Highly purified T cells [2], 135 µM; in the data set with Highly purified T cells [3], 100 µM.
Consider `CC#Cn1c(=O)c2c(ncn2C#CC)n(C#CC)c1=O` [Compound 5, 1,3,7-tripropynylxanthine], for which the melting point worked out at 155 °C. The molecule further registered an IC50 in data set [1] (Homo sapiens, PBMC) above 200 µM. For the same molecule, the half-inhibitory concentration (IC50) with Highly purified T cells [2] (Homo sapiens, T-cell) is 50 µM. In addition, the IC50 with Highly purified T cells [3] (Homo sapiens, T-cell) was above 200 µM.
Molecule `Cn1cnc2c1c(=O)n(CCCCC(=O)O)c(=O)n2C` [Compound 22, 1-(4-Carboxybutyl)-3,7-dimethylxanthine] displayed a melting point of 195 °C. The same molecule returned an IC50 in data set [1] (Homo sapiens, PBMC) above 200 µM. Moreover, in the data set with Highly purified T cells [2] (Homo sapiens, T-cell), the 50% inhibitory concentration (IC50) is above 200 µM. Further, the IC50 with Highly purified T cells [3] (Homo sapiens, T-cell) is above 200 µM.
On to `Cn1c(=O)c2[nH]cnc2n(CC(C)(C)C)c1=O` [Compound 69], for which the IC50 in data set [1] is 120 µM; with Highly purified T cells [2], 110 µM; in the data set with Highly purified T cells [3] it was 45 µM.
For `Cn1c(-c2ccc(S(N)(=O)=O)cc2)nc2c1c(=O)[nH]c(=O)n2C` [Compound 37], the IC50 is above 200 µM in data set [1], 150 µM in the data set with Highly purified T cells [2] and 150 µM in the data set on Highly purified T cells [3].
In the case of `CCOC(=O)CCCn1c(=O)c2c(ncn2C)n(C)c1=O` [Compound 24, 1-(3-ethoxycarbonyl)propyl-3,7-dimethylxanthine], the IC50 in data set [1] is above 200 µM; in the data set on Highly purified T cells [2] it was 170 µM; with Highly purified T cells [3], 150 µM.
In the same order, the values of `Cn1c(=S)c2[nH]c(C3CCCC3)nc2n(C)c1=O` [Compound 17] are 80 µM, 30 µM and 40 µM.
For `Cn1cnc2c1c(=O)n(CCCC(=O)O)c(=O)n2C` [Compound 23, 1-(3-carboxypropyl)-3,7-dimethylxanthine], the IC50 in data set [1] (Homo sapiens, PBMC) was above 200 µM; in the data set with Highly purified T cells [2] (Homo sapiens, T-cell), above 200 µM; with Highly purified T cells [3] (Homo sapiens, T-cell) it was above 200 µM.
